Test results as given in publication PMC5522071, “Preclinical development of G1T38: A novel, potent and selective inhibitor of cyclin dependent kinases 4/6 for use as an oral antineoplastic in patients with CDK4/6 sensitive tumors” (Oncotarget, 2017).
Where two headings read alike, the source gives them in different places.

Assays:
ER+ MCF7 xenograft = test: MCF-7 breast cancer xenograft model; format: in vivo, mice; details: for tumor growth inhibition (TGI): after 27 days of treatment
Protocol: Tumors were measured every 3 to 4 days during treatment for up to 20 days post-treatment. […] South Texas Accelerated Research Therapeutics (START; San Antonio, Texas) evaluated the antitumor activity of G1T38 in a START Cell-Based Xenograft (START-CBX) tumor model, MCF-7, representing human breast cancer. Data collected from this efficacy study included animal weights, observations, and tumor dimensions. This information was used to determine agent tolerability based on weight change and gross physiologic changes, and anticancer activity based on tumor growth inhibition or regression. Study endpoint was Day 60. MCF-7 cells were harvested from culture and injected into immune-deficient mice and the study initiated at a mean tumor volume of approximately 150-250 mm^3. […] Tumor growth inhibition (%TGI) was calculated using the following equation: %TGI=(1-(((TVtmtfinal-TVtmtinitial))/((AVERAGE(TVctlfinal))-(AVERAGE(TVctlinital)))))*100.

H1975 xenograft = test: H1975 NSCLC xenograft model; format: in vivo, mice
Description: To evaluate the efficacy of G1T38 in combination with EGFR inhibitors, the H1975 xenograft model was utilized. H1975 is a human NSCLC that harbors the […] mutations rendering resistance to erlotinib treatment.
Afatinib is an irreversible second generation pan-ErbB inhibitor developed as a first-line treatment of patients with metastatic NSCLC whose tumors harbor EGFR mutations or deletions as well as in patients with metastatic disease that progressed after platinum-based chemotherapy.
Female NCI Ath/nu mice were implanted with H1975 NSC lung adenocarcinoma model. Once tumors reached an average size of 100- 150 mm^3, mice were randomized into treatment cohorts. Mice were orally administered daily afatinib (20 mg/kg, Genentech/OSI), erlotinib (70 mg/kg, LC Labs), or G1T38 (50 or 100 mg/kg), as single agents or in combination (G1T38 + erlotinib or G1T38 + afatinib) for the duration of the study. Tumors were measured twice weekly until mice reached tumor burden of 1500 mm^3.

[1] = design: method as in earlier work; details: Mouse; cited from earlier work
neutrophils = test: Peripheral blood analysis, 28 days daily oral dosing
[2] = design: method as in earlier work; details: Rat; cited from earlier work
[3] = design: method as in earlier work; details: Dog; cited from earlier work
7-day continuous oral PK = details: C57BL/6, mouse, plasma
[4] = cited from earlier work

SMILES: CC/C(=C(\c1ccccc1)c1ccc(/C=C/C(=O)O)cc1)c1ccccc1 [GW5638, reference compound]
- TGI as single agents (GW5638 study) (ER+ MCF7 xenograft; G1T38 25 or 50 mg/kg alone, GW5638 25 mg/kg alone): modest TGI

SMILES: CN(C)C/C=C/C(=O)Nc1cc2c(Nc3ccc(F)c(Cl)c3)ncnc2cc1O[C@H]1CCOC1 [afatinib, reference compound]
- time at which tumors began to regrow (H1975 xenograft; afatinib only cohort, 20 mg/kg): ≤ 14 days

SMILES: C#Cc1cccc(Nc2ncnc3cc(OCCOC)c(OCCOC)cc23)c1 [erlotinib, reference compound]
- difference from vehicle treated mice (H1975 xenograft; 70 mg/kg daily): no significant difference

SMILES: CC(=O)c1c(C)c2cnc(Nc3ccc(N4CCNCC4)cn3)nc2n(C2CCCC2)c1=O [palbociclib]
- T1/2 [1]: 2.5 to 4.2 h
- decrease in neutrophils compared with G1T38 (neutrophils): similar
- T1/2 [2]: 2.4 to 4.9 h
- T1/2 [3]: 20.7 h
- concentration at 24 h (7-day continuous oral PK): ~600 nM
- tumor growth inhibition (TGI) (ER+ MCF7 xenograft; 10 mg/kg once daily oral): 18%
- tumor growth inhibition (TGI) (ER+ MCF7 xenograft; 50 mg/kg once daily oral): 66%
- time to tumor regression (ER+ MCF7 xenograft; 100 mg/kg daily oral): ≤ 10 days
- tumor growth inhibition (TGI) (ER+ MCF7 xenograft; 100 mg/kg once daily oral): 87%
- T1/2 ([4]; Human): 29 h
- half-life ([4]; in humans): > 24 h
